From patent US4581355A, “3-indolecarboxamides for control of circulatory diseases” (Yoshitomi Pharmaceutical Industries, Ltd., priority 1983, dated 1986)
One block for each molecule: values may come before it.

Columns and labels:
[1] = tested on: left ventricular pressure max dP/dt; experiment: cardiotonic activity (max dP/dt) in anesthetized dogs; assay type: in vivo; settings: injected into left coronary artery
Description: The experiment on cardiotonic activity of the compounds of the present invention was conducted as follows: Dogs were anesthetized with sodium pentobarbital and heparin was administered intraveneously. The left venticular pressure and its max dP/dt were measured. Test compounds were injected at a volume of 10 to 30 μl into a catheter inserted into left coronary artery. The effects of test compounds on max dP/dt were shown as ED30, a dose required to increase max dP/dt by 30% of the effects of 0.1 μg is isoproterenol.

central nervous system = experiment: sedative activity by electroencephalograms in rabbits; assay type: in vivo; settings: from the intraperitoneal dose of 3 mg/kg
mice = experiment: acute toxicity in male mice; assay type: in vivo; settings: observed for 5 days
Excerpt: The acute toxicity of the compounds of the present invention was studied in 5 male mice weighing 30 to 45 g.

5-lipoxygenase = 5-lipoxygenase inhibition (method of Yoshimoto et al.); assay type: biochemical; settings: read-out: 50% inhibitory concentration on 5-lipoxygenase
Excerpt: According to the pharmacological experiment conducted by the method of Yoshimoto et al. which is described in Biochem. Biophys. Res. Commum., vol. 107, p.

SMILES: C[C@@H]1O[C@@H](O[C@H]2C[C@@H](O)[C@]3(CO)[C@H]4[C@H](O)C[C@]5(C)[C@@H](C6=CC(=O)OC6)CC[C@]5(O)[C@@H]4CC[C@]3(O)C2)[C@H](O)[C@H](O)[C@H]1O [ouabain, reference compound]
ED30, dose required to increase max dP/dt by 30% of the effects of 0.1 μg isoproterenol [1]: 60 µg

SMILES: Cc1[nH]c2ccc(O)cc2c1C(=O)NC1CCN(CCCc2ccc(O)cc2)CC1 [Example 35, 5-Hydroxy-2-methyl-N-[1-(3-(p-hydroxyphenyl)propyl)-4-piperidyl]indole-3-carboxamide]
ED30, dose required to increase max dP/dt by 30% of the effects of 0.1 μg isoproterenol [1]: 36 µg

SMILES: O=C(NC1CCN(CCc2c[nH]c3ccccc23)CC1)c1ccccc1 [indoramin, 3-[2-(4-benzamido-1-piperidyl)ethyl]indole, reference compound]
changes on electroencephalograms (sedative activity) (central nervous system): trend toward slow wave
mortality (mice; oral 500 mg/kg): all mice died

IC50 (5-lipoxygenase): 0.18 µM
SMILES: Cc1[nH]c2ccc(O)cc2c1C(=O)NC1CCN(CCCc2ccccc2)CC1 [Example 3, 5-hydroxy-2-methyl-N-[1-(3-phenylpropyl)-4-piperidyl]indole-3-carboxamide]
ED30, dose required to increase max dP/dt by 30% of the effects of 0.1 μg isoproterenol [1]: 50 µg

SMILES: Cc1[nH]c2ccc(O)cc2c1C(=O)NC1CCN(CCc2ccccc2)CC1 [Example 2, 5-hydroxy-2-methyl-N-[1-(2-phenylethyl)-4-piperidyl]indole-3-carboxamide]
IC50 (5-lipoxygenase): 0.44 µM
mortality (mice; oral 1000 mg/kg): All animals survived
